Reference: patent publication US12624012B2, “14-chloro-β-elemene nitric oxide donor derivative and preparation method and use thereof” (HANGZHOU NORMAL UNIVERSITY, priority 2021, dated 2026)
Read-outs that look alike come from different tables or passages of the source.

How the values were obtained:
[1] = tested on: SW620; test: In vitro anti-tumor activity evaluation test (CCK-8), SW620; format: cell-based, human; conditions: for IC50: read-out: IC50 against different tumor cell lines; for inhibition at 1 µM: read-out: Inhibitory rates against tumor cell lines
Description: (§1) • (1) Cells were digested and counted. Cell suspensions (H520, SW620 5.0×10^4 cells/mL, and U87MG 3.5×10^4 cells/mL) were prepared. 100 μL of cell suspension was added to each well of a 96-well cell culture plate. • (2) The 96-well cell culture plate was incubated in a 37° C., 5%, CO2 incubator for 24 h. • (3) A drug was diluted with a culture medium to a desired working solution concentration. 100 μL of the corresponding drug-containing culture medium was added to each well. At the same time, a negative control group and a positive control group were set up. • (4) The 96-well cell culture plate was incubated in a 37° C., 5%, CO2 incubator for 72 h. • (5) The 96-well plate was stained with CCK-8, and at λ=450 nm, the OD value was determined. • 1) 10 μL of CCK-8 was added to each well. The culture plate continued to be incubated in the incubator for 2-3 h. • 2) The culture plate was rocked for 10 min to gently mix and remove air bubbles from the 96-well plate. • 3) At λ=450 nm, the OD value of each well was read by the enzyme marker, and the inhibitory rates were calculated. • (6) According to the following equation (1), the growth inhibitory rate of the tumor cells was obtained. The obtained results were substituted into an IC 50 calculation software SPSS17.0 to find out the IC50 value.

[2] = tested on: U87MG; test: In vitro anti-tumor activity evaluation test (CCK-8), U87MG; format: cell-based, human; conditions: 72 h; for IC50: read-out: IC50 against different tumor cell lines; for inhibition at 1 µM: read-out: Inhibitory rates against tumor cell lines
Description: as §1

[3] = tested on: NCI-H520; test: In vitro anti-tumor activity evaluation test (CCK-8), NCI-H520; format: cell-based, human; conditions: for IC50: read-out: IC50 against different tumor cell lines; for inhibition at 1 µM: read-out: Inhibitory rates against tumor cell lines
Description: as §1

[4] = In vitro NO release test (incubation with L-cysteine, OD at 550 nm); conditions: 100 μM solution with cysteine solution, 37° C.
Description: • (1) Sodium nitrite solutions with different concentrations were prepared. A calibration curve was drawn. • (2) The sample was treated. A 100 μM solution was prepared. 2.5 mL of the prepared compound solution and 2.5 mL of the cysteine solution were taken and incubated at 37° C. for 120 min, and the resulting mixture was sampled at different time points. • (3) A blank hole and a standard hole were set. 160 μL of the sample was collected and mixed evenly with 0.08 mL of a developer and stood at 37° C. for 15 min. At λ=550 nm, the OD value of absorbance was measured by the enzyme marker. The NO release levels were obtained by substituting the value into the standard curve.

[5] = Homo sapiens, SW-620, SW620, 1 μM, 72 h
[6] = Homo sapiens, U-87 MG, U87MG, 1 μM
[7] = Homo sapiens, NCI-H520, 1 μM, 72 h

| SMILES | NO-release concentrations ([4]; 5 min) [µM] | NO-release concentrations ([4]; 10 min) [µM] | NO-release concentrations ([4]; 20 min) [µM] | NO-release concentrations ([4]; 30 min) [µM] | NO-release concentrations ([4]; 60 min) [µM] | NO-release concentrations ([4]; 90 min) [µM] | NO-release concentrations ([4]; 120 min) [µM] | inhibition at 1 µM [1, 5] [%] | inhibition at 1 µM [2, 6] [%] | inhibition at 1 µM [3, 7] [%] | IC50 ([2]; Homo sapiens, U-87 MG, U87MG) [nM] | further results |
| --- | --- | --- | --- | --- | --- | --- | --- | --- | --- | --- | --- | --- |
| C=CC1(C)CCC(C(=C)CCl)CC1C(=C)CCl (stereo not drawn) [13,14-dichloro-β-elemene, reference compound] |  |  |  |  |  |  |  |  |  |  |  | Inhibitory rates against tumor cell lines ([1]; SW620, 1 μM, 72 h): 3.3 ± 1.0%; IC50 ([1]; SW620, 72 h): > 100000 nM; Inhibitory rates against tumor cell lines ([2]; U87MG, 1 μM): 3.5 ± 1.0%; IC50 ([2]; U87MG): > 100000 nM; Inhibitory rates against tumor cell lines ([3]; NCI-H520, 1 μM, 72 h): 0.9 ± 3.0%; IC50 ([3]; NCI-H520, 72 h): > 100000 nM |
| C=C[C@]1(C)CC[C@@H](C(=C)CN(C)CCOC(=O)CCC(=O)OCCOc2no[n+]([O-])c2S(=O)(=O)c2ccccc2)C[C@H]1C(=C)CCl [Example 1, 4-(2-((4-(2-((2-((1R,3R,4S)-3-(3-chloroprop-1-en-2-yl)-4-methyl-4-vinylcyclohexyl))(methyl)amino)ethyoxyl)-4-oxobutanoyl)oxy)ethyoxyl)-3-(phenylsulfonyl)-1,2,5-oxadiazole 2-oxide] | 1.73 | 2.31 | 2.90 | 4.04 | 7.76 | 12.67 | 17.21 | 30.7 ± 3.5 | 39.5 ± 2.1 | 28.8 ± 0.8 |  |  |
| C=C[C@]1(C)CC[C@@H](C(=C)CN(C)CCOC(=O)CCCC(=O)OCCOc2no[n+]([O-])c2S(=O)(=O)c2ccccc2)C[C@H]1C(=C)CCl [Example 2, 4-(2-((5-(2-((2-((1R,3R,4S)-3-(3-chloroprop-1-en-2-yl)-4-methyl-4-vinylcyclohexyl)allyl)(methyl)amino)ethyoxyl)-5-oxopentanoyl)oxy)ethyoxyl)-3-(phenylsulfonyl)-1,2,5-oxadiazole 2-oxide] | 2.10 | 2.40 | 2.84 | 3.79 | 6.74 | 10.72 | 14.97 | 42.3 ± 3.7 | 56 ± 2.1 | 48.5 ± 3 | 358 ± 23 | IC50 ([3]; Homo sapiens, NCI-H520, 72 h): 777 ± 24 nM |
| C=C[C@]1(C)CC[C@@H](C(=C)CN(C)CCOC(=O)CCC(=O)OCC#CCOc2no[n+]([O-])c2S(=O)(=O)c2ccccc2)C[C@H]1C(=C)CCl [Example 3, 4-((4-((4-(2-((2-((1R,3R,4S)-3-(3-chloroprop-1-en-2-yl)-4-methyl-4-vinylcyclohexyl)allyl)(methyl)amino)ethyoxyl)-4-oxobutanoyl)oxy)but-2-yn-1-yl)oxy)-3-(phenylsulfonyl)-1,2,5-oxadiazole 2-oxide] | 10.78 | 12.02 | 15.83 | 19.79 | 32.99 | 48.39 | 58.84 | 30.1 ± 5.2 | 34.9 ± 0.6 | 35 ± 2.2 |  |  |
| C=C[C@]1(C)CC[C@@H](C(=C)CN(CCOC(=O)CCC(=O)OCCOc2no[n+]([O-])c2S(=O)(=O)c2ccccc2)C(C)C)C[C@H]1C(=C)CCl [Example 5, 4-(2-((4-(2-((2-((1R,3R,4S)-3-(3-chloroprop-1-en-2-yl)-4-methyl-4-vinylcyclohexyl)allyl)(isopropyl)amino)ethyoxyl)-4-oxobutanoyl)oxy)ethyoxyl)-3-(phenylsulfonyl)-1,2,5-oxadiazole 2-oxide] | 0.59 | 41.61 | 48.58 | 2.57 | 5.58 | 9.22 | 13.64 | 33 ± 2.5 | 47.1 ± 0.9 | 44.2 ± 1.3 | 369 ± 25 |  |
| C=C[C@]1(C)CC[C@@H](C(=C)CN(CCOC(=O)CCCC(=O)OCCOc2no[n+]([O-])c2S(=O)(=O)c2ccccc2)C(C)C)C[C@H]1C(=C)CCl [Example 6] | 3.38 | 5.87 | 4.62 | 6.22 | 9.97 | 15.53 | 20.60 | 35.6 ± 2.8 | 54.3 ± 1.3 | 43.4 ± 1.5 | 366 ± 19 |  |
| C=C[C@]1(C)CC[C@@H](C(=C)CN(CCOC(=O)CCC(=O)OCC#CCOc2no[n+]([O-])c2S(=O)(=O)c2ccccc2)C(C)C)C[C@H]1C(=C)CCl [Example 7, 4-((4-((4-(2-((2-((1R,3R,4S)-3-(3-chloroprop-1-en-2-yl)-4-methyl-4-vinylcyclohexyl)allyl)(isopropyl)amino)ethyoxyl)-4-oxobutanoyl)oxy)but-2-yn-1-yl)oxy)-3-(phenylsulfonyl)-1,2,5-oxadiazole 2-oxide] |  |  |  |  |  |  |  |  |  |  |  | IC50 ([1]; Homo sapiens, SW-620, 72 h): 1110 ± 115 nM; inhibition at 1 µM ([1]; Homo sapiens, SW-620, 72 h): 46.6 ± 1.2%; IC50 ([2]; Homo sapiens, U-87 MG): 882 ± 34 nM; inhibition at 1 µM ([2]; Homo sapiens, U-87 MG): 56.7 ± 0.9%; inhibition at 1 µM ([3]; Homo sapiens, NCI-H520, 72 h): 44.5 ± 2.2% |
| C=C[C@]1(C)CC[C@@H](C(=C)CN(CCOC(=O)CCCC(=O)OCC#CCOc2no[n+]([O-])c2S(=O)(=O)c2ccccc2)C(C)C)C[C@H]1C(=C)CCl [Example 8] | 10.55 | 12.34 | 15.52 | 18.95 | 29.50 | 43.00 | 55.33 | 10.8 ± 3.2 | 4.5 ± 1 | 5.6 ± 1.6 |  |  |
| C=C[C@]1(C)CC[C@@H](C(=C)CN2CC[C@H](OC(=O)CCC(=O)OCCOc3no[n+]([O-])c3S(=O)(=O)c3ccccc3)C2)C[C@H]1C(=C)CCl [Example 9, 4-(2-((4-(((S)-1-(2-((1R,3R,4S)-3-(3-chloroprop-1-en-2-yl)-4-methyl-4-vinylcyclohexyl)allyl)pyrrolidine-3-ly)oxy)-4-oxobutanoyl)oxy)ethyoxyl)-3-(phenylsulfonyl)-1,2,5-oxadiazole 2-oxide] | 3.25 | 3.90 | 5.98 | 7.59 | 11.11 | 17.29 | 23.48 | 39.3 ± 4.2 | 51.3 ± 1.3 | 44.5 ± 2.8 | 323 ± 13 |  |
| C=C[C@]1(C)CC[C@@H](C(=C)CN2CC[C@H](OC(=O)CCCC(=O)OCCOc3no[n+]([O-])c3S(=O)(=O)c3ccccc3)C2)C[C@H]1C(=C)CCl [Example 10] | 8.39 | 9.44 | 10.65 | 12.22 | 18.15 | 26.49 | 34.97 | 45.9 ± 3.9 | 53.1 ± 1.4 | 46.7 ± 2 | 343 ± 29 | IC50 ([1]; Homo sapiens, SW-620, SW620, 72 h): 1020 ± 90 nM; IC50 ([3]; Homo sapiens, NCI-H520, 72 h): 848 ± 53 nM |
